Structures are written as SMILES. Converted amounts (≈) assume the structure as drawn. Starred links: 1 amine or outer side, 2 acyl side, 3 side chain; linkers in the order of their positions; H or OH if unused. Non-standard residues stand in square brackets, D forms with d. Residues, ends and D or L forms follow the SMILES beside them. Gly(N-(CH2)3-guanidino) = N=C(N)NCCCNCC(=O)O; X1 = N=C(N)NCCN(CC(=O)[*:2])[*:1]; NhArg = N=C(N)NCCCCNCC(=O)O

For one data set, the system named is Klebsiella pneumoniae. Put plainly: Antimicrobial activity against Klebsiella pneumoniae 22 after 18 hrs by broth microdilution susceptibility test. It counts as functional. Particulars: Klebsiella pneumoniae, 22, 18 h.
Data set [1] can be described thus: Membrane permeabilization in eukaryotic membrane model consisting of single unilamellar vesicle of L-alpha-phosphatidylcholine-cholesterol assessed as 5(6)-carboxyfluorescein release at high peptide-to-lipid ratio after 50 mins by fluorescence assay. It counts as ADME, cell membranes.
The nature of data set [2]: Membrane permeabilization in eukaryotic membrane model consisting of single unilamellar vesicle of L-alpha-phosphatidylcholine-cholesterol assessed as 5(6)-carboxyfluorescein release at high peptide-to-lipid ratio after 20 mins by fluorescence assay. Format: ADME, cell membranes.
Data set [3] relates to Escherichia coli. In words: Antimicrobial activity against Escherichia coli ATCC 25922 after 18 hrs by broth microdilution susceptibility test. It counts as functional. Particulars: ATCC 25922, 18 h. Background: Dilution methods test growth across graded concentrations, often in twofold steps.
Data set [4] is described as follows: Toxicity in human erythrocytes assessed as hemolytic activity at 30 uM after 60 mins. It counts as cell-based, Erythrocyte. Particulars: read-out: Activity.
Data set [5] relates to Salmonella enterica subsp. enterica. In words: Antimicrobial activity against Salmonella Typhimurium ATCC 14028 after 18 hrs by broth microdilution susceptibility test. Format: functional, Salmonella enterica subsp. enterica serovar Typhimurium. Conditions: ATCC 14028, 18 h.
Data set [6] concerns Escherichia coli. Put plainly: Antimicrobial activity against Escherichia coli O18K1H7 after 18 hrs by broth microdilution susceptibility test. Format: functional. Particulars: O18K1H7, 18 h.
The subject of data set [7] is Salmonella enterica subsp. enterica. Put plainly: Antimicrobial activity against Salmonella enteritidis PD1 after 18 hrs by broth microdilution susceptibility test. It counts as functional, Salmonella enterica subsp. enterica serovar Enteritidis. Conditions: PD1, 18 h.
The test system is the same in data set [8]. Put plainly: Antimicrobial activity against Salmonella enteritidis D5 after 18 hrs by broth microdilution susceptibility test. It counts as functional, Salmonella enterica subsp. enterica serovar Enteritidis. Particulars: D5, 18 h.
The test system of data set [9] is Escherichia coli. Put plainly: Antimicrobial activity against Escherichia coli ML35 after 18 hrs by broth microdilution susceptibility test. It counts as functional. Conditions: ML35, 18 h.
A short description of data set [10]: Toxicity in human erythrocytes assessed as hemolytic activity at 300 uM after 60 mins. Format: cell-based, Erythrocyte. Particulars: read-out: Activity.

Broadly, the MIC is the smallest concentration in the dilution series that meets the test's criterion for growth inhibition. Regarding `CC[C@H](C)[C@H](NC(=O)[C@H](Cc1ccc(O)cc1)NC(=O)[C@@H](NC(=O)[C@@H]1CCCN1C(=O)[C@H](CCCNC(=N)N)NC(=O)[C@H](CC(N)=O)NC(=O)[C@H](CC(N)=O)NC(=O)CN)C(C)C)C(=O)N1CCC[C@H]1C(=O)N[C@@H](CCC(N)=O)C(=O)N1CCC[C@H]1C(=O)N[C@@H](CCCNC(=N)N)C(=O)N1CCC[C@H]1C(=O)N[C@@H](Cc1cnc[nH]1)C(=O)N1CCC[C@H]1C(=O)N[C@@H](CCCNC(=N)N)C(=O)N[C@@H](CC(C)C)C(=O)O` (H-GNNRPVYIPQPRPHPRL-OH), the MIC was above 128 µM against Klebsiella pneumoniae, 128 µM (≈ 257 µg/mL) against Escherichia coli [3] and above 128 µM in data set [5]. Moreover, the Activity entry in data set [1] and in data set [2] was “Not Active” in each case. The hemolysis at 1 h, 30 µM in [4] was at most 2%.

For `CC[C@H](C)[C@H](NC(=O)[C@H](Cc1ccc(O)cc1)NC(=O)[C@@H](NC(=O)[C@@H]1CCCN1C(=O)[C@H](CCCNC(=N)N)NC(=O)[C@H](CC(N)=O)NC(=O)[C@H](CC(N)=O)NC(=O)CN)C(C)C)C(=O)N1CCC[C@H]1C(=O)N[C@@H](CCC(N)=O)C(=O)N1CCC[C@H]1C(=O)N(CCCCNC(=N)N)CC(=O)N1CCC[C@H]1C(=O)N[C@@H](Cc1cnc[nH]1)C(=O)N1CCC[C@H]1C(=O)N[C@@H](CCCNC(=N)N)C(=O)N[C@@H](CC(C)C)C(=O)O` (H-GNNRPVYIPQP[NhArg]PHPRL-OH), the MIC in the data set on Klebsiella pneumoniae was above 128 µM; in the data set with Escherichia coli [6], 32 µM (≈ 64.8 µg/mL); in data set [7] it was 64 µM (≈ 130 µg/mL); in [8], 64 µM (≈ 130 µg/mL); with Escherichia coli [3], 32 µM (≈ 64.8 µg/mL); against Escherichia coli [9] it was 16 µM (≈ 32.4 µg/mL). The molecule further gave an MIC in data set [5] of 32 µM (≈ 64.8 µg/mL). Moreover, the Activity entry in data set [1] and in data set [2] was “Not Active” throughout. Besides, the hemolysis at 1 h, 300 µM in data set [10] was 1.31%. The hemolysis at 1 h, 30 µM in data set [4] was at most 2%.

For `CC[C@H](C)[C@H](NC(=O)[C@H](Cc1ccc(O)cc1)NC(=O)[C@@H](NC(=O)[C@@H]1CCCN1C(=O)CN(CCCNC(=N)N)C(=O)[C@H](CC(N)=O)NC(=O)[C@H](CC(N)=O)NC(=O)CN)C(C)C)C(=O)N1CCC[C@H]1C(=O)N[C@@H](CCC(N)=O)C(=O)N1CCC[C@H]1C(=O)N[C@@H](CCCNC(=N)N)C(=O)N1CCC[C@H]1C(=O)N1CCC[C@H]1C(=O)N[C@@H](Cc1cnc[nH]1)C(=O)N1CCC[C@H]1C(=O)N[C@@H](CCCNC(=N)N)C(=O)N[C@@H](CC(C)C)C(=O)O` (H-GNN[Gly(N-(CH2)3-guanidino)]PVYIPQPRPPHPRL-OH), the MIC against Klebsiella pneumoniae was above 128 µM; in the data set with Escherichia coli [6], 16 µM (≈ 33.7 µg/mL); in data set [7] it was 32 µM (≈ 67.5 µg/mL); in data set [8], 32 µM (≈ 67.5 µg/mL); in the data set on Escherichia coli [3], 16 µM (≈ 33.7 µg/mL); with Escherichia coli [9], 16 µM (≈ 33.7 µg/mL). The minimal inhibitory concentration (MIC) in data set [5] stood at 16 µM (≈ 33.7 µg/mL). The Activity entry in data set [1] and in data set [2] was “Not Active” in each case. The hemolysis at 1 h, 300 µM in [10] worked out at 0.06%. For the same molecule, in [4], the hemolysis at 1 h, 30 µM is at most 2%.

Regarding `CC[C@H](C)[C@H](NC(=O)[C@H](Cc1ccc(O)cc1)NC(=O)[C@@H](NC(=O)[C@@H]1CCCN1C(=O)[C@H](CCCNC(=N)N)NC(=O)[C@H](CC(N)=O)NC(=O)[C@H](CC(N)=O)NC(=O)CN)C(C)C)C(=O)N1CCC[C@H]1C(=O)N[C@@H](CCC(N)=O)C(=O)N1CCC[C@H]1C(=O)N(CCNC(=N)N)CC(=O)N1CCC[C@H]1C(=O)N1CCC[C@H]1C(=O)N[C@@H](Cc1cnc[nH]1)C(=O)N1CCC[C@H]1C(=O)N[C@@H](CCCNC(=N)N)C(=O)N[C@@H](CC(C)C)C(=O)O` (H-GNNRPVYIPQP[X1]PPHPRL-OH), the MIC against Klebsiella pneumoniae was above 128 µM; in the data set with Escherichia coli [6], 32 µM (≈ 67 µg/mL); in data set [7] it was 64 µM (≈ 134 µg/mL); in data set [8] it was 64 µM (≈ 134 µg/mL); with Escherichia coli [3], 32 µM (≈ 67 µg/mL); in the data set with Escherichia coli [9] it was 16 µM (≈ 33.5 µg/mL). Further, the MIC in [5] was found to be 32 µM (≈ 67 µg/mL). For the same molecule, the Activity result in data set [1] and in data set [2] was “Not Active” each time. The hemolysis at 1 h, 300 µM in data set [10] stood at 0.87%. Further, the hemolysis at 1 h, 30 µM in data set [4] was at most 2%.

As for `CC[C@H](C)[C@H](NC(=O)[C@H](Cc1ccc(O)cc1)NC(=O)[C@@H](NC(=O)[C@@H]1CCCN1C(=O)[C@H](CCCNC(=N)N)NC(=O)[C@H](CC(N)=O)NC(=O)[C@H](CC(N)=O)NC(=O)CN)C(C)C)C(=O)N1CCC[C@H]1C(=O)N[C@@H](CCC(N)=O)C(=O)N1CCC[C@H]1C(=O)N(CCCNC(=N)N)CC(=O)N1CCC[C@H]1C(=O)N1CCC[C@H]1C(=O)N[C@@H](Cc1cnc[nH]1)C(=O)N1CCC[C@H]1C(=O)N[C@@H](CCCNC(=N)N)C(=O)N[C@@H](CC(C)C)C(=O)O` (H-GNNRPVYIPQP[Gly(N-(CH2)3-guanidino)]PPHPRL-OH), the MIC against Klebsiella pneumoniae is above 128 µM; in the data set with Escherichia coli [6] it was 16 µM (≈ 33.7 µg/mL); in data set [7], 32 µM (≈ 67.5 µg/mL); in data set [8], 16 µM (≈ 33.7 µg/mL); in the data set on Escherichia coli [3] it was 16 µM (≈ 33.7 µg/mL); with Escherichia coli [9] it was 16 µM (≈ 33.7 µg/mL). In data set [5], this molecule returned an MIC of 16 µM (≈ 33.7 µg/mL). Moreover, the Activity entry in [1] and in data set [2] was “Not Active” throughout. Also, the hemolysis at 1 h, 300 µM in data set [10] was 2%. Moreover, the hemolysis at 1 h, 30 µM in [4] is at most 2%.

Take `CC[C@H](C)[C@H](NC(=O)[C@H](Cc1ccc(O)cc1)NC(=O)[C@@H](NC(=O)[C@H](CCCNC(=N)N)NC(=O)[C@H](CC(N)=O)NC(=O)[C@H](CC(N)=O)NC(=O)CN)C(C)C)C(=O)N1CCC[C@H]1C(=O)N[C@@H](CCC(N)=O)C(=O)N1CCC[C@H]1C(=O)N[C@@H](CCCNC(=N)N)C(=O)N1CCC[C@H]1C(=O)N[C@@H](Cc1cnc[nH]1)C(=O)N1CCC[C@H]1C(=O)N[C@@H](CCCNC(=N)N)C(=O)N[C@@H](CC(C)C)C(=O)O` (H-GNNRVYIPQPRPHPRL-OH): the MIC (against Klebsiella pneumoniae; in the data set on Escherichia coli [3]; in data set [5]) was above 128 µM each time. The Activity entry in data set [1] and in [2] was “Not Active” in each case. In addition, in data set [4], the hemolysis at 1 h, 30 µM is at most 2%.

In the data set on Escherichia coli [6], `CC[C@H](C)[C@H](NC(=O)[C@H](Cc1ccc(O)cc1)NC(=O)[C@@H](NC(=O)[C@@H]1CCCN1C(=O)CN(CCCNC(=N)N)C(=O)[C@H](CC(N)=O)NC(=O)[C@H](CC(N)=O)NC(=O)CN)C(C)C)C(=O)N1CCC[C@H]1C(=O)N[C@@H](CCC(N)=O)C(=O)N1CCC[C@H]1C(=O)N(CCCNC(=N)N)CC(=O)N1CCC[C@H]1C(=O)N1CCC[C@H]1C(=O)N[C@@H](Cc1cnc[nH]1)C(=O)N1CCC[C@H]1C(=O)N(CCCNC(=N)N)CC(=O)N[C@@H](CC(C)C)C(=O)O` (H-GNN[Gly(N-(CH2)3-guanidino)]PVYIPQP[Gly(N-(CH2)3-guanidino)]PPHP[Gly(N-(CH2)3-guanidino)]L-OH) had an MIC above 128 µM. The hemolysis at 1 h, 300 µM in data set [10] is 0.06%.

`CC[C@H](C)[C@H](NC(=O)[C@H](Cc1ccc(O)cc1)NC(=O)[C@@H](NC(=O)[C@@H]1CCCN1C(=O)[C@H](CCCNC(=N)N)NC(=O)[C@H](CC(N)=O)NC(=O)[C@H](CC(N)=O)NC(=O)CN)C(C)C)C(=O)N1CCC[C@H]1C(=O)N[C@@H](CCC(N)=O)C(=O)N1CCC[C@H]1C(=O)N[C@@H](CCCNC(=N)N)C(=O)N1CCC[C@H]1C(=O)N1CCC[C@H]1C(=O)N[C@@H](Cc1cnc[nH]1)C(=O)N1CCC[C@H]1C(=O)N(CCCCNC(=N)N)CC(=O)N[C@@H](CC(C)C)C(=O)O` (H-GNNRPVYIPQPRPPHP[NhArg]L-OH): the MIC (in the data set on Klebsiella pneumoniae; in the data set on Escherichia coli [6]; in data set [7]; in [8]; in the data set with Escherichia coli [3]; with Escherichia coli [9]) was above 128 µM throughout. Further, the MIC in data set [5] is above 128 µM. Besides, the Activity result in data set [1] and in data set [2] was “Not Active” in each case. The hemolysis at 1 h, 300 µM in data set [10] came to 0.81%. Besides, the hemolysis at 1 h, 30 µM in [4] is at most 2%.

For the molecule `CC[C@H](C)[C@H](NC(=O)[C@H](Cc1ccc(O)cc1)NC(=O)[C@@H](NC(=O)[C@@H]1CCCN1C(=O)[C@H](CCCNC(=N)N)NC(=O)[C@H](CC(N)=O)NC(=O)[C@H](CC(N)=O)NC(=O)CN)C(C)C)C(=O)N1CCC[C@H]1C(=O)N[C@@H](CCC(N)=O)C(=O)N1CCC[C@H]1C(=O)N[C@@H](CCCNC(=N)N)C(=O)N1CCC[C@H]1C(=O)N1CCC[C@H]1C(=O)N[C@@H](Cc1cnc[nH]1)C(=O)N1CCC[C@H]1C(=O)N(CCNC(=N)N)CC(=O)N[C@@H](CC(C)C)C(=O)O` (H-GNNRPVYIPQPRPPHP[X1]L-OH), the minimal inhibitory concentration (MIC) (in the data set with Klebsiella pneumoniae; against Escherichia coli [6]; in data set [7]; in data set [8]; against Escherichia coli [3]; in the data set with Escherichia coli [9]) was above 128 µM each time. In data set [5], this molecule displayed an MIC above 128 µM. Besides, the Activity entry in data set [1] and in data set [2] was “Not Active” throughout. The hemolysis at 1 h, 300 µM in [10] was 0.62%. Also, the hemolysis at 1 h, 30 µM in data set [4] is at most 2%.

Values taken from ChEMBL document CHEMBL1152983, “Substitution of the arginine/leucine residues in apidaecin Ib with peptoid residues: effect on antimicrobial activity, cellular uptake, and proteolytic degradation” (J Med Chem, 2009).
